In patent US11753410B2, “Hormone receptor modulators for treating metabolic mutagenic and fibrotic conditions and disorders” (priority 2017, dated 2023):

Legend:
[1] = target: T1, ligand binding domain of human FXR (Homo sapiens, UniProt Q96RI1); experiment: biochemical; settings: for EC50: −log EC50, concentration required to produce 50% activation, FRET 520 nm/495 nm, 1 hour at room temperature, read-out: Ligand Binding pEC50 (converted); for Emax: extent of activation relative to GW4064, read-out: Ligand Binding % Efficacy
T1 construct: purchased Thermofisher (LanthaScreen) PV4833
T1 sequence (Q96RI1 262-486 limits assumed): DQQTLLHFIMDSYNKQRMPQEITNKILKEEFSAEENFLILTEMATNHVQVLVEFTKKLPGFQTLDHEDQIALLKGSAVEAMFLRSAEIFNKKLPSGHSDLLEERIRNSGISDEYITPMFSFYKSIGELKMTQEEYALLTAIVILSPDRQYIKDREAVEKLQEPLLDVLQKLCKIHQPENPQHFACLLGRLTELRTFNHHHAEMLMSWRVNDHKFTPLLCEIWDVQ

[2] = target: T2, human Farnesoid X receptor ligand-binding domain/Gal4 DNA binding domain chimera (Homo sapiens, UniProt Q96RI1); experiment: Cell-based assay of FXR activation (FXR-UAS-bla HEK 293T beta-lactamase reporter); settings: for Emax: HEK-293T, read-out: Cellular % Efficacy
T2 construct: host or cells: FXR-UAS-bla HEK 293T (CellSensor UAS-bla HEK 293T)
T2 sequence (Q96RI1 262-486 limits assumed): T1 sequence (Q96RI1 262-486 limits assumed)
Method: FXR activation was measured using a cell line and procedure obtained from Life Technologies (Cat #K1691). […] Activation of FXR by bound ligands results in transcriptional activation of the beta-lactamase reporter gene, which is detected via assay of beta-lactamase activity.
Cells are harvested and diluted into assay medium containing phenol red-free DMEM supplemented with 2% Charcoal-stripped FBS, pyruvate, non-essential amino acids. Cells are then transferred to a 384 well assay plate. Test compounds are dissolved in DMSO and a 3-fold serial dilution series is generated, then further diluted into assay medium. Compounds in assay medium are added to cells in the 384 well plate and allowed to incubate 16 h at 37 C in the presence of 5% CO2.
A FRET-based […] (CCF4) is loaded into cells as its acetomethoxy ester. Intracellular esterases liberate free CCF4, a cephalosporin core linking 7-hydroxycoumarin to fluorescein. In the presence of beta-lactamase activity produced in the presence of FXR agonists, cleavage of CCF4 spatially separates the two dyes and disrupts FRET, so that exciting the coumarin at 409 nm now produces a blue fluorescence signal at 447 nm. The change in FRET signal is plotted against the test compound concentration and fit to a 3-parameter logistical equation.

Row | Structure (SMILES) | EC50 [1] [nM] | EC50 [2] [nM] | Emax [1] [%] | Emax [2] [%]
1 | O=C(O)CCc1ccc(N2C[C@@H]3C[C@H]2C[C@H]3OCc2c(-c3c(Cl)cccc3Cl)cnn2C2CC2)cc1 [Compound I-43, 3-{4-[(1S,4S,5R)-5-{[1-cyclopropyl-4-(2,6-dichlorophenyl)-1H-pyrazol-5-yl]methoxy}-2-azabicyclo[2.2.1]heptan-2-yl]phenyl}propanoic acid] | < 316 | < 31.6 | – | –
2 | O=C(O)CCc1ccc(N2C[C@@H]3C[C@H]2C[C@H]3OCc2c(-c3c(Cl)cccc3Cl)cnn2C2CC2)c(F)c1 [Compound I-44, 3-{4-[(1S,4S,5R)-5-{[1-cyclopropyl-4-(2,6-dichlorophenyl)-1H-pyrazol-5-yl]methoxy}-2-azabicyclo[2.2.1]heptan-2-yl]-3-fluorophenyl}propanoic acid] | < 631 | < 31.6 | 96 | –
3 | CS(=O)(=O)CCNC(=O)c1ccc(N2C[C@@H]3C[C@H]2C[C@H]3OCc2c(-c3c(Cl)cccc3Cl)cnn2C2CC2)cc1F [Compound I-45, 4-[(1S,4S,5R)-5-{[1-cyclopropyl-4-(2,6-dichlorophenyl)-1H-pyrazol-5-yl]methoxy}-2-azabicyclo[2.2.1]heptan-2-yl]-2-fluoro-N-(2-methanesulfonylethyl)benzamide] | 398 | 1000 | 57 | 92
4 | O=C(NS(=O)(=O)C1CCOCC1)c1ccc(N2C[C@@H]3C[C@H]2C[C@H]3OCc2c(-c3c(Cl)cccc3Cl)cnn2C2CC2)cc1 [Compound I-46, 4-[(1S,4S,5R)-5-{[1-cyclopropyl-4-(2,6-dichlorophenyl)-1H-pyrazol-5-yl]methoxy}-2-azabicyclo[2.2.1]heptan-2-yl]-N-(oxane-4-sulfonyl)benzamide] | 100 | < 31.6 | 170 | –
5 | O=C(O)c1cc(F)c2nc(N3C[C@@H]4C[C@H]3C[C@H]4OCc3c(-c4c(Cl)cccc4Cl)cnn3C3CC3)sc2c1 [Compound I-47, 2-[(1S,4S,5R)-5-{[1-cyclopropyl-4-(2,6-dichlorophenyl)-1H-pyrazol-5-yl]methoxy}-2-azabicyclo[2.2.1]heptan-2-yl]-4-fluoro-1,3-benzothiazole-6-carboxylic acid] | 251 | 398 | 62 | 94
6 | O=C(O)c1cc(OC2CC2)c2nc(N3C[C@@H]4C[C@H]3C[C@H]4OCc3c(-c4c(Cl)cccc4Cl)cnn3C3CC3)sc2c1 [Compound I-48, 4-cyclopropoxy-2-[(1S,4S,5R)-5-{[1-cyclopropyl-4-(2,6-dichlorophenyl)-1H-pyrazol-5-yl]methoxy}-2-azabicyclo[2.2.1]heptan-2-yl]-1,3-benzothiazole-6-carboxylic acid] | 39.8 | 20 | 88 | 101
7 | O=C(O)c1cc(C2CCOCC2)c2nc(N3C[C@@H]4C[C@H]3C[C@H]4OCc3c(-c4c(Cl)cccc4Cl)cnn3C3CC3)sc2c1 [Compound I-49, 2-[(1S,4S,5R)-5-{[1-cyclopropyl-4-(2,6-dichlorophenyl)-1H-pyrazol-5-yl]methoxy}-2-azabicyclo[2.2.1]heptan-2-yl]-4-(oxan-4-yl)-1,3-benzothiazole-6-carboxylic acid] | 100 | < 63.1 | 82 | 105
8 | O=C(O)c1ccc(N2C[C@@H]3C[C@H]2C[C@H]3OCc2c(C3CC3)nnn2-c2c(Cl)cccc2Cl)cc1 [Compound I-52, 4-[(1S,4S,5R)-5-{[4-cyclopropyl-1-(2,6-dichlorophenyl)-1H-1,2,3-triazol-5-yl]methoxy}-2-azabicyclo[2.2.1]heptan-2-yl]benzoic acid] | 6.31 | 3.98 | 140 | 106
9 | O=C(O)c1ccc(N2C[C@@H]3C[C@H]2C[C@H]3OCc2c(C3CC3)nnn2-c2c(Cl)cccc2Cl)cc1F [Compound I-53, 4-[(1S,4S,5R)-5-{[4-cyclopropyl-1-(2,6-dichlorophenyl)-1H-1,2,3-triazol-5-yl]methoxy}-2-azabicyclo[2.2.1]heptan-2-yl]-2-fluorobenzoic acid] | 6.31 | 3.98 | 170 | 92
10 | O=C(O)CCc1ccc(N2C[C@@H]3C[C@H]2C[C@H]3OCc2c(C3CC3)nnn2-c2c(Cl)cccc2Cl)c(F)c1 [Compound I-54, 3-{4-[(1S,4S,5R)-5-{[4-cyclopropyl-1-(2,6-dichlorophenyl)-1H-1,2,3-triazol-5-yl]methoxy}-2-azabicyclo[2.2.1]heptan-2-yl]-3-fluorophenyl}propanoic acid] | 20 | 12.6 | 152 | 100
11 | O=C(O)CCc1ccc(N2C[C@@H]3C[C@H]2C[C@H]3OCc2c(C3CC3)nnn2-c2c(Cl)cccc2Cl)cc1F [Compound I-55, 3-{4-[(1S,4S,5R)-5-{[4-cyclopropyl-1-(2,6-dichlorophenyl)-1H-1,2,3-triazol-5-yl]methoxy}-2-azabicyclo[2.2.1]heptan-2-yl]-2-fluorophenyl}propanoic acid] | 63.1 | 15.8 | 147 | 91
12 | O=C(NS(=O)(=O)C1CCOCC1)c1ccc(N2C[C@@H]3C[C@H]2C[C@H]3OCc2c(C3CC3)nnn2-c2c(Cl)cccc2Cl)cc1 [Compound I-56, 4-[(1S,4S,5R)-5-{[4-cyclopropyl-1-(2,6-dichlorophenyl)-1H-1,2,3-triazol-5-yl]methoxy}-2-azabicyclo[2.2.1]heptan-2-yl]-N-(oxane-4-sulfonyl)benzamide] | 2 | 10 | 180 | 104
13 | O=C(O)c1cc(O[C@H]2CCOC2)c2nc(N3C[C@@H]4C[C@H]3C[C@H]4OCc3c(C4CC4)nnn3-c3c(Cl)cccc3Cl)sc2c1 [Compound I-61, 2-[(1S,4S,5R)-5-{[4-cyclopropyl-1-(2,6-dichlorophenyl)-1H-1,2,3-triazol-5-yl]methoxy}-2-azabicyclo[2.2.1]heptan-2-yl]-4-[(3S)-oxolan-3-yloxy]-1,3-benzothiazole-6-carboxylic acid] | 3.98 | 25.1 | 158 | 107
14 | O=C(O)c1cc(O[C@@H]2CCOC2)c2nc(N3C[C@@H]4C[C@H]3C[C@H]4OCc3c(C4CC4)nnn3-c3c(Cl)cccc3Cl)sc2c1 [Compound I-62, 2-[(1S,4S,5R)-5-{[4-cyclopropyl-1-(2,6-dichlorophenyl)-1H-1,2,3-triazol-5-yl]methoxy}-2-azabicyclo[2.2.1]heptan-2-yl]-4-[(3R)-oxolan-3-yloxy]-1,3-benzothiazole-6-carboxylic acid] | 3.98 | 25.1 | 158 | 106
15 | O=C(O)c1cc(OC(F)(F)F)c2nc(N3C[C@@H]4C[C@H]3C[C@H]4OCc3c(-c4c(Cl)cccc4Cl)nnn3C3CC3)sc2c1 [Compound I-63, 2-[(1S,4S,5R)-5-{[1-cyclopropyl-4-(2,6-dichlorophenyl)-1H-1,2,3-triazol-5-yl]methoxy}-2-azabicyclo[2.2.1]heptan-2-yl]-4-(trifluoromethoxy)-1,3-benzothiazole-6-carboxylic acid] | 12.6 | 12.6 | 180 | 103
16 | O=C(O)c1cc(OC2CC2)c2nc(N3C[C@@H]4C[C@H]3C[C@H]4OCc3c(-c4c(Cl)cccc4Cl)nnn3C3CC3)sc2c1 [Compound I-64, 4-cyclopropoxy-2-((1S,4S,5R)-5-((1-cyclopropyl-4-(2,6-dichlorophenyl)-1H-1,2,3-triazol-5-yl)methoxy)-2-azabicyclo[2.2.1]heptan-2-yl)benzo[d]thiazole-6-carboxylic acid] | 5.01 | 10 | 172 | 113
17 | O=C(O)c1cc(C2CCOCC2)c2nc(N3C[C@@H]4C[C@H]3C[C@H]4OCc3c(-c4c(Cl)cccc4Cl)nnn3C3CC3)sc2c1 [Compound I-67, 2-((1S,4S,5R)-5-((1-cyclopropyl-4-(2,6-dichlorophenyl)-1H-1,2,3-triazol-5-yl)methoxy)-2-azabicyclo[2.2.1]heptan-2-yl)-4-(tetrahydro-2H-pyran-4-yl)benzo[d]thiazole-6-carboxylic acid] | 20 | 10 | 148 | 111
18 | O=C(O)c1cc(C2CCC2)c2nc(N3C[C@@H]4C[C@H]3C[C@H]4OCc3c(-c4c(Cl)cccc4Cl)nnn3C3CC3)sc2c1 [Compound I-68, 4-cyclobutyl-2-[(1S,4S,5R)-5-{[1-cyclopropyl-4-(2,6-dichlorophenyl)-1H-1,2,3-triazol-5-yl]methoxy}-2-azabicyclo[2.2.1]heptan-2-yl]-1,3-benzothiazole-6-carboxylic acid] | 3.98 | 1.58 | 178 | 106
